**Q.** With `Cc1cc(-c2cnn3c(C(F)(F)F)cc(-c4ccc(Cl)cc4)nc23)ccn1` as the compound, how does the melting point read?
**A.** 220 °C

**Q.** With `Cc1cn2ccc3c(c2n1)NC(c1ccccc1)C(OC(=O)C(C)(C)C)C3=O` (stereo unspecified) as the compound, how does the melting point read?
**A.** 145 to 147 °C

**Q.** Which melting point does the source give for `Cn1ccc2c1CCn1ccnc1C2=C1CCN(C2CCN(C(=O)c3cc(C(F)(F)F)cc(C(F)(F)F)c3)C(Cc3ccccc3)C2)CC1` (stereo unspecified) here?
**A.** 133 °C

**Q.** Which melting point does the source give for `COc1ccc(-c2nc(Sc3ccc(Cl)c(Cl)c3)n(C3CCCCO3)c2-c2ccc(OC)cc2)cc1` (stereo unspecified) here?
**A.** 125 to 127 °C

**Q.** With `O=C1CCOc2ccc(OCc3ccc4ccc(Cl)cc4n3)cc21` as the compound, how does the melting point read?
**A.** 163 to 164 °C

**Q.** Which melting point does the source give for `CC(C)OC1C=CC(=O)N1S(=O)(=O)c1ccccc1` (stereo unspecified) here?
**A.** 148 to 149 °C

**Q.** Which melting point does the source give for `COc1c(NC(=O)c2c(F)cc(F)cc2F)cccc1C(=O)Nc1c(Cl)cc(C(F)(C(F)(F)F)C(F)(F)C(F)(F)F)cc1Br` (stereo unspecified) here?
**A.** 179 °C

**Q.** Which melting point does the source give for `Nc1nc(N)c2cc(CCc3ccc(C(=O)N[C@@H](CCC(=O)O)C(=O)O)cc3)cnc2n1` here?
**A.** > 250 °C

**Q.** For `O=S(=O)(OCC(F)(F)C(F)F)c1ccc2ccccc2c1`, which melting point is on record?
**A.** 89.6 °C

**Q.** Which melting point does the source give for `Nc1nc(=O)n(C(=O)Nc2cccc(Cl)c2)cc1F` here?
**A.** 250 to 252 °C

**Q.** With `O=C(Nc1ccccn1)C(CC1CCCC1)c1ccc([N+](=O)[O-])cc1` (stereo unspecified) as the compound, how does the melting point read?
**A.** 110 to 115 °C

**Q.** Which melting point does the source give for `CCCCCCCC1=CC(=O)N(c2ccccc2)C1=CBr` here?
**A.** 63 to 65 °C

**Q.** For `COc1ccc2c(=O)ccn(CCN3CCC(NC(=O)OC(C)(C)C)CC3)c2c1`, which melting point is on record?
**A.** 207 °C

**Q.** For `O=C(O)c1ccc(NC(=O)c2ccccc2SSc2ccccc2C(=O)Nc2ccc(C(=O)O)cc2)cc1`, which melting point is on record?
**A.** > 285 °C

**Q.** Which melting point does the source give for `COc1ccc2c(C)c(CCOS(C)(=O)=O)c(=O)oc2c1` here?
**A.** 174 to 175 °C

**Q.** Which melting point does the source give for `Cc1cnc(N2CCC(c3ccc(N)cc3)CC2)n1C` here?
**A.** 219 to 220 °C

**Q.** For `Cc1ccc(-c2c(NS(=O)(=O)c3cccc4ccccc34)ncnc2OCCOc2ncc(Br)cn2)cc1`, which melting point is on record?
**A.** 204 °C

**Q.** With `O=P1(O)Oc2c(Cl)cc(Cc3ccccc3)cc2-c2ccccc21` as the compound, how does the melting point read?
**A.** 240 °C

**Q.** With `Nc1nc(N)nc(-c2ccc(-c3ccc([N+](=O)[O-])cc3)cc2)n1` as the compound, how does the melting point read?
**A.** > 250 °C

**Q.** For `COc1nc2ccccc2nc1NC(=S)N1CCN(c2cc(F)cc(F)c2)CC1`, which melting point is on record?
**A.** 280 to 281 °C

**Q.** With `O=C(O)COc1cccc2c1CCc1sc(S(=O)(=O)CC=Cc3ccccc3)nc1-2` as the compound, how does the melting point read?
**A.** 210 to 214 °C

**Q.** Which melting point does the source give for `CCC(O)(CC)Cc1ccc(NC(=O)/C=C/c2cnn(C)c2-c2ccc(F)cc2)cc1` here?
**A.** 150 to 151 °C

**Q.** With `COc1ccc(S(=O)(=O)N2Cc3ccccc3N(C(=O)c3cccc(C(F)(F)F)c3)CC2C(=O)NO)cc1` (stereo unspecified) as the compound, how does the melting point read?
**A.** 128 to 130 °C

**Q.** Which melting point does the source give for `Cc1cccc(C)c1OC(=O)c1ccccc1C(=O)Oc1c(C)cccc1C` here?
**A.** 174 to 176 °C

**Q.** For `CCOC(=O)/C=C/c1ccc(-c2ccc(O)c(C34CC5CC(CC(C5)C3)C4)c2)c(Cl)c1`, which melting point is on record?
**A.** 216 to 218 °C

**Q.** For `C=CCc1c(OC(C)=O)cc(C)c2c(C)cc(=O)oc12`, which melting point is on record?
**A.** 166 °C

**Q.** Which melting point does the source give for `CS(=O)(=O)c1ccc(-c2cnn(CC(=O)c3ccc(Cl)cc3)c(=O)c2-c2ccc(F)cc2)cc1` here?
**A.** 186 to 188 °C

**Q.** With `CCCn1c(COCC)nc2c(N)nc3ccc(OC4CCN(C(=O)NC(C)C)CC4)cc3c21` as the compound, how does the melting point read?
**A.** 236 to 239 °C

**Q.** Which melting point does the source give for `COCCO[C@@H]1c2ccn3c(CO)c(C)nc3c2N[C@H](c2ccccc2)[C@H]1O` here?
**A.** 180 to 183 °C

**Q.** For `CCN(CC)C1CCN(c2cccc(-c3cnn4c(N)c(-c5cccc(Cl)c5)c(C)nc34)c2)CC1`, which melting point is on record?
**A.** 163 to 168 °C

**Q.** Which melting point does the source give for `CCOC(=O)C1=C(C(F)(F)F)Nc2n[nH]cc2C1c1cccs1` (stereo unspecified) here?
**A.** 157 to 161 °C

**Q.** For `COc1cc(Nc2c(C#N)cnc3sc(C)cc23)c(Cl)cc1Cl`, which melting point is on record?
**A.** 179 to 181 °C

**Q.** For `O=C(N[C@H]1CC[C@H](CCN2CCN(c3nccc4c3OCC4)CC2)CC1)C1(O)CC1`, which melting point is on record?
**A.** 248 °C

**Q.** With `CCOc1cc(C(CC(C)=O)N2C(=O)c3cccc(NC(C)=O)c3C2=O)ccc1OC` (stereo unspecified) as the compound, how does the melting point read?
**A.** 128 to 129 °C

**Q.** Which melting point does the source give for `O=C1c2cc3c(cc2CCC1(Br)Br)OCC3` here?
**A.** 138 to 142 °C

**Q.** For `O=C(c1cc(O)c2occc2c1)c1ccco1`, which melting point is on record?
**A.** 140 to 142 °C

**Q.** Which melting point does the source give for `COC(=O)C1Cc2ccccc2N1c1ncnc2cc(OC)c(OC)cc12` (stereo unspecified) here?
**A.** 186 to 190 °C

**Q.** For `COc1ccc(C(=O)Nc2ccc(C(=O)O)cc2)cc1C12CC3CC(CC(C3)C1)C2`, which melting point is on record?
**A.** 286 to 287 °C

**Q.** With `O=C1Nc2cc(Cl)ccc2OC1CCCBr` (stereo unspecified) as the compound, how does the melting point read?
**A.** 157 to 158 °C

**Q.** Which melting point does the source give for `COC(OC)C1(C)CN=C(c2cc3cccc(N(C)S(=O)(=O)c4cccs4)c3[nH]2)S1` (stereo unspecified) here?
**A.** 153 to 154 °C

**Q.** Which melting point does the source give for `CC(C)(C)c1cc(CC(Cc2cc(C(C)(C)C)c(O)c(C(C)(C)C)c2)(Cc2cc(C(C)(C)C)c(O)c(C(C)(C)C)c2)[N+](=O)[O-])cc(C(C)(C)C)c1O` here?
**A.** 199 to 201 °C

**Q.** For `CN1Cc2cncn2-c2ccc(F)c(Cl)c2C1=O`, which melting point is on record?
**A.** 234 to 235 °C

**Q.** Which melting point does the source give for `CCOC(=O)COc1cccc(-c2n[nH]c3c2Cc2ccccc2-3)c1` here?
**A.** 134 to 136 °C

**Q.** With `COc1cc(OC)c(-c2cc3ccccc3n2C)cc1C=CC(=O)c1ccc(S(=O)(=O)NCc2cccnc2)cc1` as the compound, how does the melting point read?
**A.** 202 to 203 °C

**Q.** With `CCOC(=O)c1c(OC(=O)CCl)c2ccccc2c2nc3ccccc3nc12` as the compound, how does the melting point read?
**A.** 208 to 209 °C

**Q.** Which melting point does the source give for `CC(C)(C)NCC(O)COc1cccc2nc[nH]c12` (stereo unspecified) here?
**A.** 203 to 205 °C

**Q.** With `Cc1ccc(NC2=C(Cl)C(=O)c3ccccc3C2=O)nc1` as the compound, how does the melting point read?
**A.** 260 to 261 °C

**Q.** With `OCC1OC(n2cnc3c(Nc4ccccc4)ncnc32)CC1F` (stereo unspecified) as the compound, how does the melting point read?
**A.** 83 °C

**Q.** Which melting point does the source give for `COc1ccccc1-n1cc(-c2ccccc2)c(OCC(=O)O)n1` here?
**A.** 170 to 174 °C

**Q.** For `COc1cccc2c1CC(C(=O)NCCOc1ccc(CC(=O)O)cc1)N2S(=O)(=O)c1ccc(-c2cccc(C(F)(F)F)c2)cc1` (stereo unspecified), which melting point is on record?
**A.** 96 °C

**Q.** For `COc1ccc(S(=O)(=O)C2(C(=O)NO)CCN(C3CCCCCCC3)CC2)cc1`, which melting point is on record?
**A.** > 200 °C

**Q.** Which melting point does the source give for `CCCCc1oc2ccc(C(=O)OC)cc2c1C(=O)c1ccc(OCCCNCC(C)(C)C)cc1` here?
**A.** 61 to 63 °C

**Q.** For `COc1nc2nc(C=C3C(=O)N4C(C(=O)O)=CSC34)cn2c2c1CCC2` (stereo unspecified), which melting point is on record?
**A.** > 250 °C

**Q.** With `O=C1c2ccccc2S(=O)(=O)N1CCCCCCOc1ccccc1` as the compound, how does the melting point read?
**A.** 64 to 66 °C

**Q.** For `COc1ccc(-c2cc(-c3ccc(F)cc3)c3c(=O)n(C)c(=O)n(C)c3n2)cc1`, which melting point is on record?
**A.** 240 to 243 °C

**Q.** For `Cc1cncn1-c1cc(C#N)cc(C(F)(F)F)c1`, which melting point is on record?
**A.** 99 to 101 °C

**Q.** Which melting point does the source give for `C#CCN1C=CC(c2c(O)cc(C(C)C(C)CCCCC)cc2OC)CC1` (stereo unspecified) here?
**A.** 113 to 115 °C

**Q.** With `CN(CCN(C)c1nc2ccccc2n1Cc1ccc(F)cc1)C(=O)OC(C)(C)C` as the compound, how does the melting point read?
**A.** 182 to 185 °C

**Q.** Which melting point does the source give for `CC1CCCCC1C(=O)Nc1ccc(-c2cnc(-c3ccc(NC(=O)C4CCCCC4)cc3)[nH]2)cc1` (stereo unspecified) here?
**A.** 221 to 223 °C

**Q.** For `CC(C)(C)NCCCNC(=O)Cn1cnc(-c2ccccc2)c1-c1ccccc1`, which melting point is on record?
**A.** 94 to 96 °C

**Q.** Which melting point does the source give for `COC(=O)c1cc(C)nc(OC)n1` here?
**A.** 101 to 103 °C

**Q.** With `COc1ccc(CC2NC(=O)NC2=O)cc1OCc1ccccc1` (racemic) as the compound, how does the melting point read?
**A.** 155 to 157 °C

**Q.** With `COc1ccc2cc(C(O)C(C)N3CCC(NC(=O)c4ccccc4)CC3)ccc2c1` (stereo unspecified) as the compound, how does the melting point read?
**A.** 175 to 177 °C

**Q.** Which melting point does the source give for `COC(=O)c1cccc(N)c1N` here?
**A.** 62 to 63 °C

**Q.** For `CC(=O)OC1CC2=CCC3C(CCC4(C)C(C(C)CCCC(C)C)CCC34)C2(C)CC1F` (stereo unspecified), which melting point is on record?
**A.** 116 to 119 °C

**Q.** With `Fc1ccccc1-c1nc2cnccc2o1` as the compound, how does the melting point read?
**A.** 110 to 111 °C
